Here are results for one compound from patent publication US9173422B2, “Compositions including pyruvate for companion animals and methods of use thereof” (Hill's Pet Nutrition, Inc., priority 2009, dated 2015).

The nature of this experiment: Canine pyruvate study blood chemistry. It counts as in vivo. To be noted: dogs fed pyruvate compared to similar foods containing fish oil. From the text:
40 dogs were fed a control food for 28 days prior to start of the study. At day 0, dogs were allotted to one of three experimental foods, control+fish oil, control+pyruvate, or control+fish oil and pyruvate. Dogs were fed the experimental foods for 45 days. [table]

`CC(=O)C(=O)O` [pyruvate, calcium pyruvate]: the blood urea nitrogen result is “reduced” and the creatinine result is reported as “reduced”.
